Assay: Transparency (no crystallization or gelation) of 12-hydroxystearic acid compositions after manufacturing, visual inspection
Type: physicochemical
Parameters: key: C: a substantially transparent or transparent composition for at least three (3) months after manufacturing; X: an opaque (non-transparent, non-translucent) composition inconsistent with the claimed compositions of this invention and where benefit agent crystallization or composition gelation is almost immediately observed
Details: SBA = 12-hydroxystearic acid
Description: Cosmetic composition is meant to mean a leave-on or wash-off composition, preferably leave-on, for topical application to mammals, especially humans. Such a composition can include tonics, lotions, personal washes, serums, spot correctors, compositions for facial masks or wipes, make-up removers, patches, scrubs or the like. Substantially transparent as used herein, means allowing light to pass but diffusing the light so that items on the opposite side of light entry are not clearly visible. Substantially transparent is synonymous with translucent. Transparent, as used herein, means capable of transmitting light where objects opposite the point of entry of light are seen clearly upon a visable inspection (i.e., 2.5 cm of sample placed 5 cm over an object and viewed from 25 cm away from viewer's eyes). Flowable, as used herein, means having a viscosity from 0 to 8,000 cps, and preferably, from 10 to 4,000 cps, and most preferably, from 500 to 2,000 cps, including all ranges subsumed therein (viscosity measured on a Brookfield Viscometer, 24° C., 20 RPM, Spindle RV2). Free of crystallization and gelation as used herein means remaining at least substantially transparent (preferably transparent) at ambient temperature for at least three (3) months. Use of substantially transparent, transparent and translucent herein is based on the mixture of hydroxy functionalized solvent (with or without miscible co-solvent) and 12-hydroxystearic acid. It is not to say the mixture cannot, for example, comprise an optional opacifier. Hydroxy group density (“HD”) means the molecular weight of total solvent hydroxy group/the molecular weight of the solvent where solvent hydroxy group can include the hydroxy group on a carboxylic acid group. Methanol, for example, has an HD of 0.53, 17 g/mol/32 g/mol. Regarding optional additives, they may be used according to their solubility where those that are not water soluble may be selected for use in the composition substantially free of water as described herein and those which are water soluble may be used in the aforementioned optional but separate and distinct phase. Miscible/Soluble, as used herein, means ability to mix/dissolve homogeneously at 70 to 85° C. and remain homogeneously dissolved or mixed upon cooling. Comprising, as used herein, is meant to include consisting essentially of and consisting of. For the avoidance of doubt, therefore, the composition of this invention may consist essentially of or consist of 12-hydroxystearic acid and hydroxy functionalized solvent. Anhydrous as used herein means a composition substantially free of water whereby the composition is less than 2% by weight water, and preferably, less than 1% by weight water based on total weight of the composition comprising 12-hydroxystearic acid and hydroxy functionalized solvent. Anhydrous also includes free of water (i.e., no water) within the composition comprising 12-hydroxystearic and hydroxy fuctionalized solvent. Double phase product includes a two (2) portion product that may be separately packaged or preferably a biphasic product (i.e., distinct immiscible portions). Skin benefit agent means an agent in addition to hydroxyl functionalized solvent and 12-hydroxystearic acid that provides benefit to skin. The skin benefit agent used in the anhydrous composition of the invention that comprises 12-hydroxystearic acid is preferably soluble or miscible in the same. To the extent optional water miscible/soluble actives or ingredients are used, they will preferably be provided, as later described, in a double phase product with the anhydrous composition of this invention, the double phase product having a distinct phase often being a water phase (including emulsions, solutions and dispersions), water containing concentrate or water soluble solid, particulate or powder. Water phase, as used herein, includes a composition having 2% or more water, and preferably, from 10% to 98% by weight water based on total weight of the water phase. […]

Molecule | Transparency of composition (1% SBA/99% Solvent) | Transparency of composition (3% SBA/97% Solvent) | Transparency of composition (5% SBA/95% Solvent) | Transparency of composition (10% SBA/90% Solvent) | Transparency of composition (15% SBA/85% Solvent) | Transparency of composition (20% SBA/80% Solvent) | Transparency of composition (25% SBA/75% Solvent)
CCO [Ethanol] | C (a substantially transparent or transparent composition for at least three (3) months after manufacturing) | C (a substantially transparent or transparent composition for at least three (3) months after manufacturing) | C (a substantially transparent or transparent composition for at least three (3) months after manufacturing) | C (a substantially transparent or transparent composition for at least three (3) months after manufacturing) | C (a substantially transparent or transparent composition for at least three (3) months after manufacturing) | X | X
CC(C)CCCCCCCCCCCCCCCO [Isostearyl Alcohol] | C (a substantially transparent or transparent composition for at least three (3) months after manufacturing) | C (a substantially transparent or transparent composition for at least three (3) months after manufacturing) | X | X | X | X | X
CO [Methanol] | C (a substantially transparent or transparent composition for at least three (3) months after manufacturing) | C (a substantially transparent or transparent composition for at least three (3) months after manufacturing) | C (a substantially transparent or transparent composition for at least three (3) months after manufacturing) | C (a substantially transparent or transparent composition for at least three (3) months after manufacturing) | C (a substantially transparent or transparent composition for at least three (3) months after manufacturing) | C (a substantially transparent or transparent composition for at least three (3) months after manufacturing) | X
CC(C)CCCCCCCCCCCCCCC(=O)O [Isostearic Acid] | C (a substantially transparent or transparent composition for at least three (3) months after manufacturing) | C (a substantially transparent or transparent composition for at least three (3) months after manufacturing) | X | X | X | X | X
OCc1ccccc1 [Benzyl Alcohol] | C (a substantially transparent or transparent composition for at least three (3) months after manufacturing) | C (a substantially transparent or transparent composition for at least three (3) months after manufacturing) | C (a substantially transparent or transparent composition for at least three (3) months after manufacturing) | X | X | X | X
OCCOc1ccccc1 [Pehnoxyethanol] | C (a substantially transparent or transparent composition for at least three (3) months after manufacturing) | C (a substantially transparent or transparent composition for at least three (3) months after manufacturing) | C (a substantially transparent or transparent composition for at least three (3) months after manufacturing) | X | X | X | X
CCCCCCCCCCC(CO)CCCCCCCC (stereo not drawn) [Octyldodecanol] | C (a substantially transparent or transparent composition for at least three (3) months after manufacturing) | C (a substantially transparent or transparent composition for at least three (3) months after manufacturing) | X | X | X | X | X
Ethylhexyl Hydroxystearate | C (a substantially transparent or transparent composition for at least three (3) months after manufacturing) | X | X | X | X | X | X
OCCCCO [Butylene Glycol] | C (a substantially transparent or transparent composition for at least three (3) months after manufacturing) | X | X | X | X | X | X
CCOCCOCCO [2-(2-Ethoxyethoxy)ethanol] | C (a substantially transparent or transparent composition for at least three (3) months after manufacturing) | C (a substantially transparent or transparent composition for at least three (3) months after manufacturing) | C (a substantially transparent or transparent composition for at least three (3) months after manufacturing) | X | X | X | X
CC(O)CO (stereo not drawn) [Propylene Glycol] | C (a substantially transparent or transparent composition for at least three (3) months after manufacturing) | X | X | X | X | X | X
Conjugated Linoleic Acid | C (a substantially transparent or transparent composition for at least three (3) months after manufacturing) | C (a substantially transparent or transparent composition for at least three (3) months after manufacturing) | X | X | X | X | X

Source: patent US10660836B2, “Hydroxy functionalized solvent based skin benefit composition” (Conopco, Inc., priority 2015, dated 2020)
